According to PMC9181887, “In Vitro Antithrombotic, Hematological Toxicity, and Inhibitor Studies of Protocatechuic, Isovanillic, and p-Hydroxybenzoic Acids from Maclura tricuspidata (Carr.) Bur” (Molecules, 2022):

Key:
[1] = test system: fibrin clot network (Alexa Fluor 488 fibrinogen, thrombin); test: Fibrin clot assay using a fluorescence microscope; assay type: biochemical, human; details: fluorescent fibrinogen and thrombin, 30 min
Procedure: Fibrin clots were prepared by mixing 2.6 μM human fibrinogen and 0.4 μM Alexa Fluor 488 fibrinogen with 0.25 U/mL of thrombin in 20 mM Tris-HCl (pH 7.4) in a glass-bottom dish and treated with compounds or 20 IU u-PA as previously described. The mixtures were incubated for 30 min at 37 °C in the dark. Fibrin clots were observed under a fluorescence microscope (Nikon, Eclipse TE 2000-U, Kyoto, Japan) and photographed. Fibrin clots pre-treated with saline (control group) or […] (positive control group). Quantitative analysis of the fluorescent fibrin clots was performed using the ImageJ 1.46 b image analysis software.

leukocytes = test: Hematological study, leukocyte count by hemocytometer; assay type: cell-based; details: 10 min, vs control
Procedure: (§1) Figure 1 Blood cytotoxic effect of PA (A), IVA (B), and 4-HA (C). Aliquots of washed platelets (10^3/mL), erythrocytes (10^6/mL), and leukocytes (10^3/mL) were treated with or without the compounds for 10 min and cell number was determined by hemocytometer counts. Each value is the mean ± SD of triplicate measurements. * p < 0.05 and ** p < 0.01, compared to each control groups. 10–500, 10–100 μg of each compound treated.
(§2) Total white blood cells (leukocytes) and red blood cells (erythrocytes) were counted using a hemocytometer, as previously described. Blood was diluted 1:200 with Hayem’s fluid and the cells were counted in a loaded hemocytometer chamber. To count the blood platelets, blood was diluted in a ratio of 1:20 with a diluting fluid, and four large (1 mm^2) corner squares of the hemocytometer were counted under a light microscope. Aliquots of leukocytes (0.1 mL; 10^3/mL), erythrocytes (0.1 mL; 10^6/mL), and platelets (0.1 mL; 10^3/mL) were treated with or without the compounds for 10 min.

platelets = test: Hematological study, platelet count by hemocytometer; assay type: cell-based; details: 10 min, vs control
Procedure: as §1, §2

human thrombin = molecular target: T1, human thrombin (Homo sapiens, UniProt P00734); test: Thrombin activity and kinetic/inhibitor assay; assay type: biochemical; details: for inhibition type against thrombin: from Kik/Kiv ratio and Lineweaver–Burk plots; for activity of thrombin: highest concentration of each compound, p < 0.01; for IC50 / Ki / Kik/Kiv / Kcat / Vmax: thrombin; for Vmax value of thrombin decreased by, fold of non-treated: vs non-treated 0.381 ± 0.011 mU/min; for Vmax value of thrombin decreased by, fold of non-treated / Km value of thrombin reduced by, fold of non-treated / Kcat values of thrombin reduced by, fold of non-treated: compound 0.065–1.3 mM; for Km value of thrombin reduced by, fold of non-treated: vs non-treated 0.566 ± 0.025 mM; for Kcat values of thrombin reduced by, fold of non-treated: vs non-treated 109.87 ± 3.16 s^−1
T1 construct: purchased Sigma-Aldrich
Procedure: To determine the thrombin activity, various concentrations of compounds were treated with 1 U human thrombin in 100 μL of 20 mM Tris-HCl, as previously described. The reaction solutions were incubated for 15 min at 37 °C. After the incubation, 1 mM chromogenic substrate for thrombin (S-2238, HD-Phe-Pip-Arg-p-nitroanilide) was added and incubated for 1 h at 37 °C. Absorbance was measured at 405 nm to determine the enzymatic activity. To determine FXa activity, various concentrations of the compounds were mixed with 1 U human FXa in 20 mM Tris-HCl (pH 7.4) in volume of 100 μL, followed by incubation for 15 min at 37 °C. After adding 1 mM N-benzoyl-Ile-Glu-Gly-Arg-p-nitroanilide, a highly specific chromogenic peptide substrate for FXa, the reaction solutions were incubated for 1 h at 37 °C. The residual activity of FXa was measured at 405 nm and is presented as a percentage of inhibition. To investigate FXIIIa activity, various concentrations of the compounds were mixed with 1 U human FXIIIa in 20 mM Tris-HCl (pH 7.4) in a volume of 100 μL, followed by, incubation for 15 min at 37 °C as previously described. The residual activity of FXIIIa was measured using casein and fibrinogen-HRP, according to the manufacturer’s instructions, and was presented as a percentage of inhibition. The negative control was generated by treatment with only thrombin, FXa, or FXIIIa without treatment with any compound.
Kinetic assays were performed using PA, IVA, and 4-HA for procoagulant proteases (thrombin and FXa) and fibrinoligase (FXIIIa). The kinetic constants were calculated using Lineweaver–Burk plots based on the initial reaction rates with different concentrations (0.1, 0.5, 1, and 2 mM) of each substrate for thrombin, FXa, and FXIIIa treated with or without the compounds (0.065, 0.13, 0.33, 0.65, and 1.30 mM [1–20 μg]) in a total volume of 100 μL. The Michaelis–Menten constant (Km) and maximal velocity (Vmax) were calculated from the x and y intercepts, respectively. […] The median inhibitory concentration (IC50) was defined as the concentration required to reach a 50% reduction in the activity of the three target factors. The Kik and Kiv inhibition constants were calculated using a previously described method. The inhibition type of the compounds against the three target factors was evaluated according to a previously described inhibition type definition.

[2] = test system: human platelet-poor plasma; test: Recalcification time assay; assay type: biochemical; details: for Absorbance after Reaction: 650 nm after 30 min, NC2 0.2094 ± 0.0305; for Half Time at 1/2 Maximum: NC2 740 ± 20 s; for Fold of Half Time: NC2 = 1.00; for plasma coagulation time: 1–20 μg
Procedure: Figure 5 Effect of PA (A), IVA (B), and 4-HA (C) on recalcification time and plasma density. Human platelet-poor plasma was mixed with PA, IVA, and 4-HA dissolved in DMSO in 96-well plates and incubated for 10 min at 37 °C. Thereafter, 100 mM pre-warmed CaCl2 was added to the mixture and absorbance was taken every 60 s at 650 nm for 30 min in a microplate reader. The plasma density was presented as the optical density at 650 nm after 30 min. The half time (s) was presented as reaching a half-maximum absorbance value. NC1, plasma only; NC2, plasma treated with CaCl2; PC, positive control group (1 U heparin); PA1–20, 1–20 μg of PA treated; IVA1–20, 1–20 μg of IVA treated; 4-HA1–20, 1–20 μg of 4-HA treated.
Recalcification time was measured in a 96-well plate, according to a previously described method, with slight modifications. First, 50 μL of human platelet-poor plasma was mixed with 50 μL of the compounds, vehicle as NC2, or 1 U heparin as PC, and incubated at 37 °C for 10 min. Thereafter, 100 mM pre-warmed CaCl2 was added to the mixture and absorbance was measured at 650 nm every 1 min for 30 min using a microplate reader. The plasma density was presented as the absorbance at 650 nm after 30 min. The half time was presented as reaching a half-maximum absorbance value.

Row | SMILES | fibrin network structure / clot density [1] | inhibition type against thrombin (human thrombin) | activity of thrombin (human thrombin) | IC50 (human thrombin) | Ki (human thrombin) | Kik/Kiv (human thrombin) | Kcat (human thrombin; compound 0.065 mM (1 μg)) | Vmax (human thrombin; compound 0.065 mM (1 μg)) | Kcat (human thrombin; compound 0.13 mM (2 μg)) | Vmax (human thrombin; compound 0.13 mM (2 μg)) | Kcat (human thrombin; compound 0.325 mM (5 μg)) | Vmax (human thrombin; compound 0.325 mM (5 μg)) | Kcat (human thrombin; compound 0.65 mM (10 μg)) | Vmax (human thrombin; compound 0.65 mM (10 μg)) | Kcat (human thrombin; compound 1.3 mM (20 μg)) | Vmax (human thrombin; compound 1.3 mM (20 μg)) | Vmax value of thrombin decreased by, fold of non-treated (human thrombin) | Kcat values of thrombin reduced by, fold of non-treated (human thrombin) | Absorbance after Reaction ([2]; 1 μg) | Absorbance after Reaction ([2]; 2 μg) | further results
1 | O=C(O)c1ccc(O)cc1 [4-HA, 4-hydroxybenzoic acid] | morphological changes in the network and reduced fibrin clot density | uncompetitive inhibition type | significantly decreased | 1.7 mM | 1.7 mM | 1.2 | 100.59 ± 1.41 s⁻¹ | 0.349 ± 0.013 mU/min | 98.38 ± 1.24 s⁻¹ | 0.341 ± 0.015 mU/min | 91.57 ± 0.98 s⁻¹ | 0.317 ± 0.016 mU/min | 89.25 ± 0.77 s⁻¹ | 0.309 ± 0.020 mU/min | 78.83 ± 1.01 s⁻¹ | 0.273 ± 0.013 mU/min | 0.72–0.92 fold | 0.72–0.92 fold | 0.1424 ± 0.0122 | 0.1086 ± 0.0083 | effect on leukocyte number (leukocytes; 10–50 μg/mL): did not cause any effect; effect on platelet number (platelets; 10–50 μg/mL): did not cause any effect; Km value of thrombin reduced by, fold of non-treated (human thrombin): 0.71–0.86 fold; half-life and plasma coagulation time [2]: significant delay; Half Time at 1/2 Maximum ([2]; 2 μg): 950 ± 70 s; Fold of Half Time ([2]; 2 μg): 1.28 ± 0.09; Absorbance after Reaction ([2]; 5 μg): 0.0866 ± 0.0051; Absorbance after Reaction ([2]; 10 μg): 0.0233 ± 0.0014; Absorbance after Reaction ([2]; 20 μg): 0.0205 ± 0.0029; plasma coagulation time [2]: partially prolonged
2 | COc1ccc(C(=O)O)cc1O [IVA, isovanillic acid] | morphological changes in the network and reduced fibrin clot density | uncompetitive inhibition type | significantly decreased | 0.925 mM | 0.923 mM | 1.1 | 87.72 ± 1.32 s⁻¹ | 0.304 ± 0.013 mU/min | 94.13 ± 2.08 s⁻¹ | 0.326 ± 0.018 mU/min | 67.14 ± 0.93 s⁻¹ | 0.233 ± 0.010 mU/min | 54.42 ± 0.81 s⁻¹ | 0.189 ± 0.007 mU/min | 48.31 ± 1.05 s⁻¹ | 0.167 ± 0.008 mU/min | 0.44–0.86 fold | 0.43–0.86 fold | 0.1882 ± 0.0097 | 0.1732 ± 0.0106 | effect on leukocyte number (leukocytes; 10–50 μg/mL): did not cause any effect; effect on platelet number (platelets; 10–50 μg/mL): did not cause any effect; Km value of thrombin reduced by, fold of non-treated (human thrombin): 0.52–0.93 fold; Half Time at 1/2 Maximum ([2]; 1 μg): 510 ± 25 s; Fold of Half Time ([2]; 1 μg): 0.69 ± 0.03; Absorbance after Reaction ([2]; 5 μg): 0.1575 ± 0.0052; Half Time at 1/2 Maximum ([2]; 5 μg): 615 ± 20 s; Fold of Half Time ([2]; 5 μg): 0.83 ± 0.03; Absorbance after Reaction ([2]; 10 μg): 0.1377 ± 0.0071; Half Time at 1/2 Maximum ([2]; 10 μg): 355 ± 30 s; Fold of Half Time ([2]; 10 μg): 0.48 ± 0.04; Absorbance after Reaction ([2]; 20 μg): 0.0462 ± 0.0035; plasma coagulation time [2]: partially prolonged; final plasma density ([2]; after 1800 s): significantly decreased; initial response of plasma coagulation (fold of half time) ([2]; range over doses, promoted (shorter half time)): 0.48–0.83 fold
3 | O=C(O)c1ccc(O)c(O)c1 [PA, protocatechuic acid] | morphological changes in the network and reduced fibrin clot density | mixed inhibition type | significantly decreased | 1.11 mM | 1.11 mM | 125.4 | 101.67 ± 1.44 s⁻¹ | 0.352 ± 0.019 mU/min | 93.29 ± 1.60 s⁻¹ | 0.323 ± 0.021 mU/min | 85.00 ± 2.13 s⁻¹ | 0.295 ± 0.015 mU/min | 71.98 ± 1.95 s⁻¹ | 0.249 ± 0.009 mU/min | 69.08 ± 1.15 s⁻¹ | 0.239 ± 0.008 mU/min | 0.65–0.92 fold | 0.63–0.93 fold | 0.1898 ± 0.0227 | 0.0201 ± 0.0012 | effect on leukocyte number (leukocytes; 10–100 μg/mL): did not cause any effect; effect on platelet number (platelets; 10–100 μg/mL): did not cause any effect; half-life and plasma coagulation time [2]: significant delay; Half Time at 1/2 Maximum ([2]; 1 μg): 1220 ± 90 s; Fold of Half Time ([2]; 1 μg): 1.65 ± 0.12; Absorbance after Reaction ([2]; 5 μg): 0.0044 ± 0.0009; Absorbance after Reaction ([2]; 10 μg): −0.0047 ± 0.0004; Absorbance after Reaction ([2]; 20 μg): −0.0103 ± 0.0011; plasma coagulation for 1800 s ([2]; 5–20 μg): completely delayed
